Experimental data from patent US10842756B2 (BIOVIIIX S.R.L., priority 2015, dated 2020).

Tests used:
[1] = Release kinetics of the drug by micro-dialysis (QuixSep) into PBS pH 7.4; assay type: physicochemical; settings: 5FU solution in PBS at 200 μg/ml; up to 60 minutes; ambient temperature
Procedure: In particular, as a receiving step a PBS (phosphate buffered saline) at pH=7.4 was analysed. The method used is micro-dialysis by means of a system known as QuixSep® with a Spectra/pore membrane, MWCO=3500 Da.
The system was maintained under constant magnetic stirring, at ambient temperature, taking samples of the receiving step at predetermined times and re-integrating the collected volume.
The samples were analysed and the values obtained were plotted considering the single collections and re-integrations from the preceding step, so as to obtain a dissolution/release profile.
The data relating to the release percentage were calculated on the basis of a drug loading determined by LC-MS/MS analysis.

[2] = bolus of 600 mg of 5FU, cited from earlier work

For `O=c1[nH]cc(F)c(=O)[nH]1` [Batch 5FU, 5-fluorouracil], the “dissolution of the free drug” value [1] is given as 70%, the “plasmatic concentration of 5FU” value ([2]; after 25 minutes) is given as 10 µg/mL and the Cmax ([2]; body surface of 1.7) is given as “about 50 μg/ml”.
